We go through two molecules from US20230174584A1, “Antibiotic Compounds” (priority 2019, published 2023).

One assay relates to E. faecium E0745. As to the kind of experiment: MIC assay. The class given is cell-based, Enterococcus faecium. The following applies: Enterococcus faecium, E0745. The essentials: (§1)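 We measured MICs by CLSI broth microdilution with polysorbate 80 (0.002%) in TSB, a 10^6 CFU/mL inoculum, and a 24 h, 37 °C shaken incubation.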
A further assay concerns E. faecium E6016. Nature of the assay: MIC assay. The class given is cell-based, Enterococcus faecium. The following applies: Enterococcus faecium, E6016. The procedure, abridged:
as §1

A further assay relates to E. faecium E7314. Nature of the assay: microbe, parasite or virus in culture. It is filed as cell-based, Enterococcus faecium. To be noted: Enterococcus faecium. The essentials: as §1
The test system of the next assay is E. faecium E155. Nature of the assay: microbe, parasite or virus in culture. It is filed as cell-based, Enterococcus faecium. To be noted: Enterococcus faecium. The procedure, abridged:
as §1

A further assay relates to S. aureus ATCC29123. Nature of the assay: Lipid II antagonization assay. For all read-outs here: key: − means no visible growth; + means visible growth. It is filed as cell-based, Staphylococcus aureus. The following applies: 8×MIC of test compound, 24 h; for visible bacterial growth with lipid II: 5-fold molar excess of lipid II. Here is the method:
Lipid II in chloroform was added in the appropriate amount (5-fold molar excess compared to test antibiotics) to a 96-well plate and the chloroform was allowed to evaporate. […] Of these dilutions, 50 μL was mixed with the 5-fold molar excess of pure lipid II in triplicates in the plate as well as added to the plate in triplicates without lipid II present. S. aureus ATCC29123 colonies were suspended in TSB with 0.002% p80 by direct colony suspension to an optical density that reached a level equivalent to the 0.5 McFarlan standard. […] The samples were incubated at 37° C. for 24 h with constant shaking (600 rpm) and inspected for visible bacterial growth. Positive growth control consisted of wells with bacterial suspension and without antibiotic or lipid II. Negative growth control consisted of solely media without bacterial suspension, antibiotic or lipid II.
In the antagonization assay, lipid II is co-incubated with the test antibiotics in the presence of bacterial culture. When lipid II binds the glycopeptides, the binding of these antibiotics to their target in the growing bacterial culture is antagonized. This ultimately results in diminished activity of the antibiotics and bacterial growth which normally would not be visible (at 8×MIC) becomes visible. Therefore, this assay could be used to determine if part of the mechanism of action of our compounds involves binding to lipid II.

The next assay deals with S. aureus ATCC29213. Nature of the assay: MIC assay. To be noted: Staphylococcus aureus, ATCC 29213 / MSSA. It is filed as cell-based, Staphylococcus aureus. The essentials:
as §1

Assay [1] concerns S. aureus NY-155, NR-46236. As to the kind of experiment: MIC assay. The class given is cell-based, Staphylococcus aureus. The following applies: Staphylococcus aureus, MRSA. The procedure, abridged:
as §1

Assay [2] deals with S. aureus HIP12864, NR-46074. As to the kind of experiment: MIC assay. It is filed as cell-based, Staphylococcus aureus. To be noted: Staphylococcus aureus, VISA. The essentials: as §1
For assay [3], the system named is S. aureus 880 (BR-VRSA), NR-49120. Nature of the assay: MIC assay. The class given is cell-based, Staphylococcus aureus. The procedure, abridged:
as §1

The test system of assay [4] is S. aureus LIM-2, NR-25881. Nature of the assay: MIC assay. It is filed as cell-based, Staphylococcus aureus. The following applies: Staphylococcus aureus, VISA. The essentials: as §1
For a further assay, the system named is E. faecium E0341. Nature of the assay: MIC assay. It is filed as cell-based, Enterococcus faecium. To be noted: Enterococcus faecium, E0341.
The test system of another assay is E. faecalis E7406. As to the kind of experiment: microbe, parasite or virus in culture. The following applies: Enterococcus faecalis, VRE. It is filed as cell-based, Enterococcus faecalis. The procedure, abridged: as §1
The next assay relates to E. faecalis E7604. As to the kind of experiment: microbe, parasite or virus in culture. The following applies: Enterococcus faecalis, VRE. It is filed as cell-based, Enterococcus faecalis. The procedure, abridged: as §1

Converted amounts (≈) assume the structure as drawn.

With `CCCCCCCCCCNCCN[C@@]1(C)C[C@H](O[C@H]2[C@H](Oc3c4cc5cc3Oc3ccc(cc3Cl)[C@@H](O)[C@@H](NC(=O)[C@@H](CC(C)C)NC)C(=O)N[C@@H](CC(N)=O)C(=O)N[C@H]5C(=O)N[C@H]3C(=O)N[C@H](C(=O)N[C@H](C(=O)O)c5cc(O)c(CNCP(=O)(O)O)c(O)c5-c5cc3ccc5O)[C@H](O)c3ccc(c(Cl)c3)O4)O[C@H](CO)[C@@H](O)[C@@H]2O)O[C@@H](C)[C@H]1O` [Telavancin, reference compound], the MIC against E. faecium E0745 was 4 µg/mL (≈ 2.28 µM); against E. faecium E6016, 4 µg/mL (≈ 2.28 µM); in the assay with E. faecium E7314 (E7314) it was not above 0.008 µg/mL; in the assay with E. faecium E7314 (VRE) it was not above 0.00781 µg/mL; against E. faecium E155 (E155) it was 4 µg/mL (≈ 2.28 µM); in the assay on E. faecium E155 (VRE), 4 µg/mL (≈ 2.28 µM). Further, the MIC came out at 0.125 µg/mL (≈ 0.0712 µM) against S. aureus ATCC29213; 0.031 µg/mL (≈ 0.0177 µM) in assay [1]; 0.25 µg/mL (≈ 0.142 µM) in assay [2]; 8 µg/mL (≈ 4.56 µM) in assay [3] (Staphylococcus aureus, VRSA); 8 µg/mL (≈ 4.56 µM) in [3] (strain BR-VRSA); 0.25 µg/mL (≈ 0.142 µM) in assay [4]. The MIC against E. faecium E0341 was found to be 8 µg/mL (≈ 4.56 µM); against E. faecalis E7406, 0.0625 µg/mL (≈ 0.0356 µM); in the assay on E. faecalis E7604, 0.063 µg/mL (≈ 0.0359 µM). For the same molecule, the “visible bacterial growth with lipid II” value in the assay on S. aureus ATCC29123 is “+”. The “visible bacterial growth without lipid II” value in the assay on S. aureus ATCC29123 is on record as “−”.
As for `CN[C@H](CC(C)C)C(=O)N[C@H]1C(=O)N[C@@H](CC(N)=O)C(=O)N[C@H]2C(=O)N[C@H]3C(=O)N[C@H](C(=O)N[C@H](C(=O)O)c4cc(O)cc(O)c4-c4cc3ccc4O)[C@H](O)c3ccc(c(Cl)c3)Oc3cc2cc(c3O[C@@H]2O[C@H](CO)[C@@H](O)[C@H](O)[C@H]2O[C@H]2C[C@](C)(N)[C@H](O)[C@H](C)O2)Oc2ccc(cc2Cl)[C@H]1O` [Vancomycin, reference compound], the MIC against E. faecium E0745 was more than 128 µg/mL; with E. faecium E6016, more than 128 µg/mL; in the assay with E. faecium E7314 (E7314), 128 µg/mL (≈ 88.3 µM); with E. faecium E7314 (VRE) it was 128 µg/mL (≈ 88.3 µM); with E. faecium E155 (E155) it was more than 128 µg/mL; against E. faecium E155 (VRE), more than 128 µg/mL. For the same molecule, the MIC is 1 µg/mL (≈ 0.69 µM) with S. aureus ATCC29213; 2 µg/mL (≈ 1.38 µM) in assay [1]; 8 µg/mL (≈ 5.52 µM) in [2]; more than 128 µg/mL in assay [3] (Staphylococcus aureus, VRSA); more than 128 µg/mL in assay [3] (strain BR-VRSA); 8 µg/mL (≈ 5.52 µM) in [4]. Also, the MIC in the assay with E. faecium E0341 was more than 128 µg/mL; against E. faecalis E7406, 16 µg/mL (≈ 11 µM); in the assay with E. faecalis E7604, 16 µg/mL (≈ 11 µM). The “visible bacterial growth with lipid II” value in the assay with S. aureus ATCC29123 is recorded as “+”. The “visible bacterial growth without lipid II” value in the assay with S. aureus ATCC29123 is reported as “−”.
